Measured values published in PubChem BioAssay (NCI).
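Values below derive from 48-hour exposures of cells grown in 96-well plates, with endpoints linearly interpolated between the two concentrations bracketing the appropriate inhibition level. GI50 is the concentration that inhibits growth by half. The concentration for full growth arrest is given as TGI.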

Key:
Assay in all cases: inhibition of tumour cell growth, NCI panel, 48 h
COLO 205 colon = system: COLO 205 colon
UACC-62 melanoma = system: UACC-62 melanoma
OVCAR-5 ovarian = system: OVCAR-5 ovarian
SF-268 CNS = system: SF-268 CNS
SR leukemia = system: SR leukemia
M14 melanoma = system: M14 melanoma
BT-549 breast = system: BT-549 breast
ACHN renal = system: ACHN renal
HCT-116 colon = system: HCT-116 colon
NCI-H460 lung = system: NCI-H460 lung
NCI-H522 lung = system: NCI-H522 lung
SNB-19 CNS = system: SNB-19 CNS
PC-3 prostate = system: PC-3 prostate
SN12C renal = system: SN12C renal
NCI/ADR-RES ovarian = system: NCI/ADR-RES ovarian
OVCAR-8 ovarian = system: OVCAR-8 ovarian
HS 578T breast = system: HS 578T breast
NCI-H226 lung = system: NCI-H226 lung
SNB-75 CNS = system: SNB-75 CNS
SK-MEL-5 melanoma = system: SK-MEL-5 melanoma
HCC-2998 colon = system: HCC-2998 colon
HT29 colon = system: HT29 colon
OVCAR-4 ovarian = system: OVCAR-4 ovarian
CCRF-CEM leukemia = system: CCRF-CEM leukemia
MDA-MB-231 breast = system: MDA-MB-231 breast
SK-OV-3 ovarian = system: SK-OV-3 ovarian
DU-145 prostate = system: DU-145 prostate
K-562 leukemia = system: K-562 leukemia
HCT-15 colon = system: HCT-15 colon
UACC-257 melanoma = system: UACC-257 melanoma
HOP-62 NSCLC = system: HOP-62 NSCLC
LOX IMVI melanoma = system: LOX IMVI melanoma
SW-620 colon = system: SW-620 colon
786-0 renal = system: 786-0 renal
RPMI-8226 leukemia = system: RPMI-8226 leukemia
TK-10 renal = system: TK-10 renal
A498 renal = system: A498 renal
MCF7 breast = system: MCF7 breast
KM12 colon = system: KM12 colon
NCI-H23 lung = system: NCI-H23 lung
UO-31 renal = system: UO-31 renal
EKVX NSCLC = system: EKVX NSCLC
IGROV1 ovarian = system: IGROV1 ovarian
MOLT-4 leukemia = system: MOLT-4 leukemia
U251 CNS = system: U251 CNS
SK-MEL-28 melanoma = system: SK-MEL-28 melanoma
SF-295 CNS = system: SF-295 CNS

## COC(=O)[C@@H](C)C[C@H](Cc1ccc2ccccc2c1)NC(=O)c1csc([C@@H](C[C@H](C(C)C)N(C)C(=O)[C@@H](NC(=O)[C@H]2CCCCN2C)C(C)C)OC(C)=O)n1
COLO 205 colon
  GI50: 16 nM
  TGI: 282 nM
UACC-62 melanoma
  GI50: 9.95 nM
  TGI: 7780 nM
OVCAR-5 ovarian
  GI50: 62.9 nM
  TGI: > 25000 nM
SF-268 CNS
  GI50: 21 nM
  TGI: > 25000 nM
SR leukemia
  GI50: 2.5 nM
  TGI: 3570 nM
M14 melanoma
  GI50: 12.9 nM
  TGI: 4290 nM
BT-549 breast
  GI50: 13 nM
  TGI: 374 nM
ACHN renal
  GI50: 164 nM
  TGI: 4590 nM
HCT-116 colon
  GI50: 8.65 nM
  TGI: 13000 nM
NCI-H460 lung
  GI50: 11.8 nM
  TGI: > 25000 nM
NCI-H522 lung
  GI50: 5.61 nM
  TGI: 6030 nM
SNB-19 CNS
  GI50: 15.3 nM
  TGI: > 25000 nM
PC-3 prostate
  GI50: 10.6 nM
  TGI: 7770 nM
SN12C renal
  GI50: 47 nM
  TGI: > 25000 nM
NCI/ADR-RES ovarian
  GI50: 614 nM
  TGI: > 25000 nM
OVCAR-8 ovarian
  GI50: 44.5 nM
  TGI: > 25000 nM
HS 578T breast
  GI50: 12.2 nM
  TGI: > 25000 nM
NCI-H226 lung
  GI50: 7110 nM
  TGI: > 25000 nM
SNB-75 CNS
  GI50: 5.24 nM
  TGI: > 25000 nM
SK-MEL-5 melanoma
  GI50: 12.2 nM
  TGI: 1420 nM
HCC-2998 colon
  GI50: 52.9 nM
  TGI: 21600 nM
HT29 colon
  GI50: 8.29 nM
  TGI: 4520 nM
OVCAR-4 ovarian
  GI50: 129 nM
  TGI: > 25000 nM
CCRF-CEM leukemia
  GI50: 10.3 nM
  TGI: > 25000 nM
MDA-MB-231 breast
  GI50: 20.6 nM
  TGI: 7170 nM
SK-OV-3 ovarian
  GI50: 48 nM
  TGI: > 25000 nM
DU-145 prostate
  GI50: 9.84 nM
  TGI: > 25000 nM
K-562 leukemia
  GI50: 7.06 nM
  TGI: 8760 nM
HCT-15 colon
  GI50: 52.2 nM
  TGI: > 25000 nM
UACC-257 melanoma
  GI50: 4130 nM
  TGI: 9420 nM
HOP-62 NSCLC
  GI50: 22.1 nM
  TGI: > 25000 nM
LOX IMVI melanoma
  GI50: 13 nM
  TGI: 4780 nM
SW-620 colon
  GI50: 14.7 nM
  TGI: > 25000 nM
786-0 renal
  GI50: 9.94 nM
  TGI: 5080 nM
RPMI-8226 leukemia
  GI50: 9.32 nM
  TGI: 5990 nM
TK-10 renal
  GI50: 8800 nM
  TGI: > 25000 nM
A498 renal
  GI50: 74.5 nM
  TGI: > 25000 nM
MCF7 breast
  GI50: 6.99 nM
  TGI: 9210 nM
KM12 colon
  GI50: 11 nM
  TGI: > 25000 nM
NCI-H23 lung
  GI50: 28.1 nM
  TGI: > 25000 nM
UO-31 renal
  GI50: 286 nM
  TGI: 5180 nM
EKVX NSCLC
  GI50: 41.8 nM
  TGI: > 25000 nM
IGROV1 ovarian
  GI50: 18.3 nM
  TGI: > 25000 nM
MOLT-4 leukemia
  GI50: 11.5 nM
  TGI: 7540 nM
U251 CNS
  GI50: 12.8 nM
  TGI: 10700 nM
SK-MEL-28 melanoma
  GI50: 2700 nM
  TGI: 6600 nM
SF-295 CNS
  GI50: 10.7 nM
  TGI: > 25000 nM
